In brackets after ≈: the same amount, converted by molar mass. Where two headings read alike, the source gives them in different places.
Assays:
[1] = tested on: BJ-TERT/p53DD/CDK4^R24C/D1/ST/RAS^V12 cells; assay: Calcein AM viability assay, dilution-series retest; assay type: cell-based; settings: Homo sapiens, 48 h, read-out: IC50, BJ-TERT/p53DD/CDK4^R24C/cyclineD1/ST/Ras^V12
Text: These engineered tumorigenic cells make use of dominantly acting viral oncoproteins such as LT, ST, E6 and E7. These viral proteins are possibly involved in cell transformation in specific forms of cancer, namely simian virus 40-induced malignant mesothelioma (Testa and Giordano, 2001, Semin Cancer Biol 11, 31-8) and human papillomavirus-induced cervical carcinoma (Bosch et al., 2002, J Clin Pathol 55, 244-65), and have been used to disrupt p53 and pRB function to transform cells in vitro and in vivo (Elenbaas et al., 2001, Genes Dev 15, 50-65; Jorcyk et al., 1998, Prostate 34, 10-22; Perez-Stable et al., 1997, Cancer Res 57, 900-6; Rich et al., 2001, Cancer Res 61, 3556-60; Sandmoller et al., 1995, Cell Growth Differ 6, 97-103). Applicants made use of these two different methods for inactivating cellular proteins, (they tested the effects of both LT and E6/E7-based inactivation of pRB and p53) in order to control for idiosyncratic effects that might be observed with a specific viral protein. The selectivity of these compounds was also confirmed in a cell line expressing dominant negative inhibitors of p53 and pRB that are not derived from viral elements. This cell line expresses (i) a truncated form of p53 (p53DD) that disrupts tetramerization of endogenous p53, (ii) a CDK4^R24C mutant resistant to inhibition by p16^INK4A and p15^INK4B (the major negative regulators of CDK4) and (iii) cyclin D1. The effects of the nine genotype-selective compounds were tested at a range of concentrations in these cells, which are referred to as BJ-TERT/ p53DD/CDK4^R24C/D1/ST/RAS^V12 cells (Table 1). […] However, the overall results of the analysis were unchanged by the use of non-viral proteins in this cell line (Table 1).
Calcein acetoxylmethyl ester (AM) is a cell membrane-permeable, non-fluorescent compound that is cleaved by intracellular esterases to form the anionic, cell-impermeable, fluorescent compound calcein. Viable cells are stained by calcein because of the presence of intracellular esterases and because the intact plasma membrane prevents fluorescent calcein from leaking out of cells (Wang et al., 1993, supra). Cells were seeded in 384-well plates using a Zymark Sciclone ALH, treated with each compound in triplicate at 4 μg/mL in the primary screen for two days, washed with phosphate-buffered saline on a Packard Minitrak with a 384-well washer and incubated for four hours with 0.7 μg/mL calcein (Molecular Probes). Total fluorescence intensity in each well was recorded on a Packard Fusion platereader, and converted to a percent inhibition of signal by subtracting the instrument background and dividing by the average signal obtained when cells were not treated with any compound.
Replica daughter plates were prepared with a Zymark Sciclone ALH and integrated Twister II by diluting stock plates 50 fold in medium lacking serum and pen/strep to obtain a compound concentration in daughter plates of 80 μg/ml with 2% DMSO. Assay plates were prepared by seeding cells in black, clear bottom 384-well plates in columns 1-23 (6000 cells/well in 57 μl) using a syringe bulk dispenser. Columns 3-22 were treated with compounds from a daughter library plate by transferring 3 μl from the daughter library plate using 384-position fixed cannula array. The final compound concentrations in assay plates were thus 4 μg/ml. The assay plates were incubated for 48 hours at 37° C. in humidified incubator containing 5% CO2. Plate processing for the calcein AM viability assay was performed using an integrated Minitrak/Sidetrak robotic system from Packard Bioscience (Perkin Elmer). Assay plates were washed with phosphate buffered saline, and 20 μl of calcein AM (0.7 μg/ml) per well was added. Plates were incubated at room temperature for 4 hours. Fluorescence intensity was determined using a Fusion platereader with filters centered on an excitation of 485 nm and an emission of 535 nm.
Compounds to be retested were purchased from manufacturers. […]

[2] = tested on: BJ-TERT/LT/ST/RAS^V12 cells; assay: Annexin V-FITC apoptosis assay; assay type: cell-based, human; settings: untreated 6%
Protocol: BJ-TERT/LT/ST/RAS^V12 cells were seeded at 1×10^6 cells per dish in 100 mm dishes and allowed to grow overnight. Cells were treated with erastin (5 or 10 μg/ml) for 6, 8 or 11 h. A camptothecin-treated (0.4 μg/ml) control was maintained, treated at the time of seeding for 20 hours. After the treatment, cells were harvested with trypsin/EDTA and washed once with fresh medium containing serum and then twice with phosphate buffered saline. Cells were resuspended in 1× binding buffer (BD Pharmingen) at a concentration of 1×10^6 cells/mi. 100 μl (1×10^5 cells) was incubated with 5 μl of Annexin V- FITC (BD Pharmingen) and propidium iodiode (BD Pharmingen) for 15 minutes in the dark at room temperature. Then 400 μl of the 1× binding buffer was added and the cells analyzed by flow cytometry (Becton-Dickinson). Data were acquired and analyzed using Cellquest software.

reactive oxygen species = assay: ROS analysis, flow cytometry using H2DCF-DA; assay type: cell-based, human; settings: engineered cells
Text: 2′7′ dichlorodihydrofluorescein diacetate (H2DCF-DA) is a non-fluorescent cell permeable compound. The endogenous esterase enzyme inside the cell cleaves the diacetate part, and it can no longer pass out of the cell. Thus it accumulates in the cell. Then H2DCF reacts with ROS to form fluorescent dichlorofluorescene (DCF) which can be measured by flow cytometry in FL1 channel. • 1. Seed cells at 3×10^5 cells per dish in 60 mm dishes and allow to grow overnight. • 2. Treat with the test compound for different period of time (1-10 hr). • 3. Maintain one dish for untreated cells, compound treated cell and positive control dish (hydrogen peroxide treated) for each time point. • 4. Incubate the cells with 10 μM of H2DCF-DA for 10 minutes at 37° C. • 5. For positive control cells, after 5 minutes of H2DCF-DA loading, add 500 μM of hydrogen peroxide and incubate for 5 minutes further. • 6. Harvest the cell by trypsinization. • 7. Wash with cold PBS-twice. • 8. Resuspend the pellet in 100 μl of PBS and transfer into 5 ml FACS tube. • 9. Add 5 μl of propidium iodide (50 μg/ml) and incubate for 10 minutes on ice in dark. • 10. Add 400 μl of PBS and analyze by flow cytometry (Becton-Dickinson). • 11. Acquire the data and analyze using CellQuest software program. • 12. Take only propidium iodiode negative cells (viable cells) for the analysis for DCF staining using the FLI channel, PI in FL3 channel, plot a quadrant chart.

[3] = BJ-TERT/p53DD/CDK4^R24C/cyclineD1/ST/Ras^V12 cells, 16-point two-fold dilution, two days

COc1ccc(C[C@H]2C(=O)N[C@@H](C)C(=O)N(C)[C@@H]3C(=O)N(C)[C@@H](Cc4ccc(O)c(c4)Oc4ccc(cc4)[C@@H]3O)C(=O)N[C@H](C)C(=O)N[C@@H](C)C(=O)N2C)cc1 [Bouvardin]
IC50 [1]: 0.156 µg/mL (≈ 0.202 µM)

CC[C@@]1(O)C(=O)OCc2c1cc1n(c2=O)Cc2cc3ccccc3nc2-1 [Camptothecin]
percentage of cells in the M1 region (Annexin V staining) ([2]; camptothecin-treated (1 μM)): 38% | IC50 [1, 3]: 1.25 µg/mL (≈ 3.59 µM)

COc1cccc2c1C(=O)c1c(O)c3c(c(O)c1C2=O)C[C@@](O)(C(C)=O)C[C@@H]3O[C@H]1C[C@H](N)[C@H](O)[C@H](C)O1 [Daunorubicin]
formation of reactive oxygen species (ROS) (reactive oxygen species): did not observe the formation of ROS | IC50 [1]: 0.625 µg/mL (≈ 1.18 µM)

COc1cccc2c1C(=O)c1c(O)c3c(c(O)c1C2=O)C[C@@](O)(C(=O)CO)C[C@@H]3O[C@H]1C[C@H](N)[C@H](O)[C@H](C)O1 [Doxorubicin]
formation of reactive oxygen species (ROS) (reactive oxygen species): did not observe the formation of ROS | IC50 [1, 3]: 1.25 µg/mL (≈ 2.3 µM)

CS[C@H]1SC[C@H]2C(=O)N(C)[C@@H](C(C)C)C(=O)OC[C@@H](NC(=O)c3cnc4ccccc4n3)C(=O)N[C@@H](C)C(=O)N(C)[C@@H]1C(=O)N(C)[C@@H](C(C)C)C(=O)OC[C@@H](NC(=O)c1cnc3ccccc3n1)C(=O)N[C@@H](C)C(=O)N2C [Echinomycin]
IC50 [1]: 0.078 µg/mL (≈ 0.0708 µM)

CCOc1ccccc1-n1c(C(C)N2CCN(C(=O)COc3ccc(Cl)cc3)CC2)nc2ccccc2c1=O (stereo not shown) [Erastin]
percentage of cells in the M1 region (Annexin V staining) ([2]; erastin-treated (9 μM)): 6% | IC50 [1, 3]: 2.5 µg/mL (≈ 4.57 µM)

O=C1c2c(O)ccc(O)c2C(=O)c2c(NCCNCCO)ccc(NCCNCCO)c21 [Mitoxantrone]
formation of reactive oxygen species (ROS) (reactive oxygen species): did not observe the formation of ROS | IC50 [1, 3]: 1.25 µg/mL (≈ 2.81 µM)

NC(=O)c1cn([C@@H]2O[C@H](CO)[C@@H](O)[C@H]2O)c2ncnc(N)c12 [Sangivamycin]
IC50 [1]: 0.078 µg/mL (≈ 0.252 µM)

Source: patent US20050032124A1, “Identification of genotype-selective agents for treating Huntington's disease” (priority 2003, published 2005)
